Measured values reported in the supplement of paper PMC11208160.

Assay: recombinant UMI read abundance after kanamycin selection (control-corrected) (log10(CPM+1)); higher = more efficient recombination; extreme values may be limits of the assay; sequences stand for … in AGTGCAGAGAAAATCGGCCAGTTTTCTCTGCCTGCAGTCCGCATGCCGTGGGACCCCTTGGGTTCTAACCTGTTGCCTAGATTTATGCAGCGGACTGCCTTTCTCCCAAAGTGATAAACCGG…AGGTTGGTTTCACT; site = the 11-nt donor
Procedure, shortened: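 Counts of recombinant UMIs were reported as log10(CPM+1). Before that, they were converted to CPM, averaged over replicates and scaled using control-derived factors. They came from PCR across the donor–target junction after Escherichia coli carrying the pair library and target plasmid was plated on IPTG (0.07 mM) plus kanamycin, or unselected, in two replicates each.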
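Further: IS621 bridge recombinase in Escherichia coli cells against a fixed T5 target plasmid.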

Sequence | recombinant UMI read abundance (log10)
GATCGAGCATGGACCGGTTTTCCCGGTAATCCGTATTTGCA (site GTTCGAGCTTG) | 1.58
GATCGTGCATGGACCGGTTTTCCCGGTAATCCGTATTTGGC (site GATCGTGCTGC) | 1.18
GATCTAACATGGACCGGTTTTCCCGGTAATCCGTATTTGTC (site GATCTAACTGA) | 0
GATCTGCCATGGACCGGTTTTCCCGGTAATCCGTATTTGAT (site GATCTGCCTAT) | 0.0121
GATGAGACATGGACCGGTTTTCCCGGTAATCCGTATTTGAA (site GATGAGACTTT) | 1.82
GATTAACCATGGACCGGTTTTCCCGGTAATCCGTATTTGCT (site GATTAACCTAG) | 0
GATTAACCATGGACCGGTTTTCCCGGTAATCCGTATTTGCT (site GATTACCCTAG) | 0
GATTAACCATGGACCGGTTTTCCCGGTAATCCGTATTTGCT (site GATTAGCCTAG) | 0
GATTAACCATGGACCGGTTTTCCCGGTAATCCGTATTTGCT (site GATTATCCTAG) | 0.0295
GATTAGCCATGGACCGGTTTTCCCGGTAATCCGTATTTGCT (site GATTAACCTAG) | 0
GATTAGCCATGGACCGGTTTTCCCGGTAATCCGTATTTGCT (site GATTACCCTAG) | 0
GATTAGCCATGGACCGGTTTTCCCGGTAATCCGTATTTGCT (site GATTAGCCTAG) | 0
GATTAGCCATGGACCGGTTTTCCCGGTAATCCGTATTTGCT (site GATTATCCTAG) | 0
GATTATACATGGACCGGTTTTCCCGGTAATCCGTATTTGCT (site GATTATACTAG) | 1.87
GATTATACATGGACCGGTTTTCCCGGTAATCCGTATTTGCT (site GATTATCCTAG) | 0
GATTATACATGGACCGGTTTTCCCGGTAATCCGTATTTGCT (site GATTATGCTAG) | 0
GATTATACATGGACCGGTTTTCCCGGTAATCCGTATTTGCT (site GATTATTCTAG) | 0
GATTATCCATGGACCGGTTTTCCCGGTAATCCGTATTTGCA (site GATTATCCTAG) | 0
GATTATCCATGGACCGGTTTTCCCGGTAATCCGTATTTGCA (site GATTATCCTCG) | 0

Sequence | recombinant UMI read abundance (log10)
GATTATCCATGGACCGGTTTTCCCGGTAATCCGTATTTGCA (site GATTATCCTGG) | 0
GATTATCCATGGACCGGTTTTCCCGGTAATCCGTATTTGCA (site GATTATCCTTG) | 0
GATTATCCATGGACCGGTTTTCCCGGTAATCCGTATTTGCG (site GATTATCCTAG) | 0
GATTATCCATGGACCGGTTTTCCCGGTAATCCGTATTTGCG (site GATTATCCTCG) | 0.363
GATTATCCATGGACCGGTTTTCCCGGTAATCCGTATTTGCG (site GATTATCCTGG) | 0
GATTATCCATGGACCGGTTTTCCCGGTAATCCGTATTTGCG (site GATTATCCTTG) | 0
GATTATTCATGGACCGGTTTTCCCGGTAATCCGTATTTGCT (site GATTATACTAG) | 0
GATTATTCATGGACCGGTTTTCCCGGTAATCCGTATTTGCT (site GATTATCCTAG) | 0
GATTATTCATGGACCGGTTTTCCCGGTAATCCGTATTTGCT (site GATTATGCTAG) | 0
GATTATTCATGGACCGGTTTTCCCGGTAATCCGTATTTGCT (site GATTATTCTAG) | 1.96
GATTCACCATGGACCGGTTTTCCCGGTAATCCGTATTTGCG (site GATTCACCTCG) | 0.00637
GATTCCCCATGGACCGGTTTTCCCGGTAATCCGTATTTGGG (site TTAGGTTCTGA) | 0
GATTCTCCATGGACCGGTTTTCCCGGTAATCCGTATTTGCT (site GATTATCCTAG) | 0
GATTCTCCATGGACCGGTTTTCCCGGTAATCCGTATTTGCT (site GATTCTCCTAG) | 0.753
GATTCTCCATGGACCGGTTTTCCCGGTAATCCGTATTTGCT (site GATTGTCCTAG) | 0
GATTCTCCATGGACCGGTTTTCCCGGTAATCCGTATTTGCT (site GATTTTCCTAG) | 0
GATTGGACATGGACCGGTTTTCCCGGTAATCCGTATTTGGC (site GATTGGACTGA) | 0
GATTGGACATGGACCGGTTTTCCCGGTAATCCGTATTTGGC (site GATTGGACTGC) | 1.65
GATTGGACATGGACCGGTTTTCCCGGTAATCCGTATTTGGC (site GATTGGACTGG) | 0

Sequence | recombinant UMI read abundance (log10)
GATTGGACATGGACCGGTTTTCCCGGTAATCCGTATTTGGC (site GATTGGACTGT) | 1.63
GATTGGCCATGGACCGGTTTTCCCGGTAATCCGTATTTGAC (site GATTGGACTGT) | 0
GATTGGCCATGGACCGGTTTTCCCGGTAATCCGTATTTGAC (site GATTGGCCTGT) | 0
GATTGGCCATGGACCGGTTTTCCCGGTAATCCGTATTTGAC (site GATTGGGCTGT) | 0
GATTGGCCATGGACCGGTTTTCCCGGTAATCCGTATTTGAC (site GATTGGTCTGT) | 0
GATTGGCCATGGACCGGTTTTCCCGGTAATCCGTATTTGCA (site GAATGGCCTTG) | 0
GATTGGCCATGGACCGGTTTTCCCGGTAATCCGTATTTGCA (site GACTGGCCTTG) | 0
GATTGGCCATGGACCGGTTTTCCCGGTAATCCGTATTTGCA (site GAGTGGCCTTG) | 0
GATTGGCCATGGACCGGTTTTCCCGGTAATCCGTATTTGCA (site GATTGGCCTTG) | 0.00508
GATTGGGCATGGACCGGTTTTCCCGGTAATCCGTATTTGAC (site GATTGGACTGT) | 0.803
GATTGGGCATGGACCGGTTTTCCCGGTAATCCGTATTTGAC (site GATTGGCCTGT) | 0
GATTGGGCATGGACCGGTTTTCCCGGTAATCCGTATTTGAC (site GATTGGGCTGT) | 1.51
GATTGGGCATGGACCGGTTTTCCCGGTAATCCGTATTTGAC (site GATTGGTCTGT) | 0
GATTGGTCATGGACCGGTTTTCCCGGTAATCCGTATTTGAC (site GATTGGACTGT) | 0
GATTGGTCATGGACCGGTTTTCCCGGTAATCCGTATTTGAC (site GATTGGCCTGT) | 0
GATTGGTCATGGACCGGTTTTCCCGGTAATCCGTATTTGAC (site GATTGGGCTGT) | 0
GATTGGTCATGGACCGGTTTTCCCGGTAATCCGTATTTGAC (site GATTGGTCTGT) | 0
GATTTGCCATGGACCGGTTTTCCCGGTAATCCGTATTTGGA (site GATTTGCCTTC) | 0.0059
GATTTGGCATGGACCGGTTTTCCCGGTAATCCGTATTTGTG (site AATTTGGCTCA) | 0.142
